≈ marks a conversion by molar mass, not a printed value. Calls of active or inactive are those of the source. No cut-off for these calls is given here.
Key:
HeLa = test: Cytotoxicity against human HeLa cells after 24 hrs by Cell Titre-Glo luminescent assay; format: cell-based
Pseudomonas aeruginosa [1] = test: Antibacterial activity against multidrug-resistant Pseudomonas aeruginosa PAE302 after 16 hrs by microbroth dilution method; format: functional; conditions: PAE302, 16 h
Pseudomonas aeruginosa [2] = test: Antibacterial activity against multidrug-resistant Pseudomonas aeruginosa PAE287 after 16 hrs by microbroth dilution method; format: functional; conditions: PAE287, 16 h
Pseudomonas aeruginosa [3] = test: Antibacterial activity against multidrug-resistant Pseudomonas aeruginosa PAE231 after 16 hrs by microbroth dilution method; format: functional; conditions: PAE231, 16 h
[4] = target: Outer-membrane lipoprotein carrier protein (Escherichia coli (strain K12), UniProt P61316); test: Binding affinity to Escherichia coli K-12 lolA expressed in Escherichia coli BL21(AI) by NMR spectrometry
Escherichia coli [5] = test: Induction of Lpp accumulation in inner membrane of Escherichia coli K-12 MG1655 at 320 ug/ml after 20 mins by SDS-PAGE; format: functional, organism-based
Pseudomonas aeruginosa [6] = test: Antibacterial activity against multidrug-resistant Pseudomonas aeruginosa PS35823 after 16 hrs by microbroth dilution method; format: functional; conditions: PS35823, 16 h
[7] = target: T1, Outer-membrane lipoprotein carrier protein (Escherichia coli (strain K12)) (UniProt P61316); test: Inhibition of IPTG-stimulated Escherichia coli K-12 lolA at 16 fold MIC after 16 hrs by spectrophotometry
T1 sequence (whole entry): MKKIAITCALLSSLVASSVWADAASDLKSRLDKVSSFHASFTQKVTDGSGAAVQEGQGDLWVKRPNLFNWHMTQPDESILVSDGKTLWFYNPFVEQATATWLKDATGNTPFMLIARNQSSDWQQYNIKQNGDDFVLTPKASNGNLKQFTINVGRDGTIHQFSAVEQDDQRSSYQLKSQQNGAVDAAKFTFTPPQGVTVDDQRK

Pseudomonas aeruginosa [8] = test: Antibacterial activity against multidrug-resistant Pseudomonas aeruginosa PS8539204 after 16 hrs by microbroth dilution method; format: functional; conditions: PS8539204, 16 h
[9] = target: T1, Outer-membrane lipoprotein carrier protein (Escherichia coli (strain K12)); test: Inhibition of IPTG-stimulated Escherichia coli K-12 lolA at 8 fold MIC by microarray analysis
Pseudomonas aeruginosa [10] = test: Antibacterial activity against multidrug-resistant Pseudomonas aeruginosa PS8534624 after 16 hrs by microbroth dilution method; format: functional; conditions: PS8534624, 16 h
Pseudomonas aeruginosa [11] = test: Antibacterial activity against multidrug-resistant Pseudomonas aeruginosa PS37619 after 16 hrs by microbroth dilution method; format: functional; conditions: PS37619, 16 h
Pseudomonas aeruginosa [12] = test: Antibacterial activity against multidrug-resistant Pseudomonas aeruginosa PS36769 after 16 hrs by microbroth dilution method; format: functional; conditions: PS36769, 16 h
Candida albicans = test: Antifungal activity against Candida albicans after 16 hrs by microbroth dilution method; format: functional
[13] = target: Multidrug efflux pump subunit AcrB (Escherichia coli (strain K12)) (UniProt P31224); test: Binding affinity to Escherichia coli K-12 MC1061 acrB assessed as decrease in susceptibility to compound efflux at 2 to 128 ug/ml after 16 hrs by plate reader assay
Escherichia coli [14] = test: Antibacterial activity against Escherichia coli ATCC 25922 after 16 hrs by microbroth dilution method; format: functional; conditions: ATCC 25922, 16 h
Pseudomonas aeruginosa [15] = test: Antibacterial activity against multidrug-resistant Pseudomonas aeruginosa PAE252 after 16 hrs by microbroth dilution method; format: functional; conditions: PAE252, 16 h
Pseudomonas aeruginosa [16] = test: Antibacterial activity against multidrug-resistant Pseudomonas aeruginosa PS364 after 16 hrs by microbroth dilution method; format: functional; conditions: PS364, 16 h
Bacillus subtilis = test: Antibacterial activity against Bacillus subtilis 168 after 16 hrs by microbroth dilution method; format: functional; conditions: subsp. subtilis str. 168, 16 h
[17] = target: T2, Outer membrane protein TolC (Escherichia coli (strain K12)) (UniProt P02930); test: Inhibition of IPTG-stimulated Escherichia coli K-12 tolC at 16 fold MIC by microarray analysis
T2 sequence (whole entry): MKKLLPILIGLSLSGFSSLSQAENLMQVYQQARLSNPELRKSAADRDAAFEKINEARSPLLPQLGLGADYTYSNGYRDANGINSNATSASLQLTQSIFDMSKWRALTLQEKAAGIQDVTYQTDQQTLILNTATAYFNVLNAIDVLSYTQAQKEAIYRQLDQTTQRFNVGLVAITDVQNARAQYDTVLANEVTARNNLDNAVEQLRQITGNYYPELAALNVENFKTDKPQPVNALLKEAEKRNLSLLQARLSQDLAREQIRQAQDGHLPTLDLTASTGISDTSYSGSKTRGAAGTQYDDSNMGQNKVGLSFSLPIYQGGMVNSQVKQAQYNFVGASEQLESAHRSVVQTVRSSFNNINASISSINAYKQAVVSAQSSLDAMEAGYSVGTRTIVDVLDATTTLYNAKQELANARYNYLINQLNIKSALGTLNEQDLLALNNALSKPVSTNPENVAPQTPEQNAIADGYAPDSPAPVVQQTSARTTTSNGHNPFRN

Pseudomonas aeruginosa [18] = test: Antibacterial activity against multidrug-resistant Pseudomonas aeruginosa PS216 after 16 hrs by microbroth dilution method; format: functional; conditions: PS216, 16 h
[19] = target: T1, Outer-membrane lipoprotein carrier protein (Escherichia coli (strain K12)); test: Inhibition of IPTG-stimulated Escherichia coli K-12 lolA at 16 fold MIC by microarray analysis
Burkholderia cepacia = test: Antibacterial activity against Burkholderia cepacia B154408 after 16 hrs by microbroth dilution method; format: functional; conditions: B154408, 16 h
[20] = target: T2, Outer membrane protein TolC (Escherichia coli (strain K12)); test: Inhibition of IPTG-stimulated Escherichia coli K-12 tolC at 4 fold MIC by microarray analysis
[21] = target: T1, Outer-membrane lipoprotein carrier protein (Escherichia coli (strain K12)); test: Inhibition of IPTG-stimulated Escherichia coli K-12 lolA at 4 fold MIC by microarray analysis
Escherichia coli [22] = test: Antibacterial activity against Escherichia coli K-12 harboring lolA gene after 16 hrs by serial dilution method; format: functional; conditions: K-12, 16 h
Micrococcus luteus = test: Antibacterial activity against Micrococcus luteus after 16 hrs by microbroth dilution method; format: functional
Escherichia coli [23] = test: Induction of Lpp accumulation in inner membrane of Escherichia coli K-12 MG1655 at 320 ug/ml after 20 mins by autoradiography; format: functional, organism-based
Pseudomonas aeruginosa [24] = test: Antibacterial activity against multidrug-resistant Pseudomonas aeruginosa PS232 after 16 hrs by microbroth dilution method; format: functional; conditions: PS232, 16 h
Pseudomonas aeruginosa [25] = test: Antibacterial activity against multidrug-resistant Pseudomonas aeruginosa PS37834 after 16 hrs by microbroth dilution method; format: functional; conditions: PS37834, 16 h
Pseudomonas aeruginosa [26] = test: Antibacterial activity against multidrug-resistant Pseudomonas aeruginosa PS225 after 16 hrs by microbroth dilution method; format: functional; conditions: PS225, 16 h
[27] = test system: Stenotrophomonas maltophilia; test: Antibacterial activity against Stenotrophomonas maltophilia B22020 after 16 hrs by microbroth dilution method; format: functional; conditions: B22020, 16 h
Staphylococcus aureus = test: Antibacterial activity against Staphylococcus aureus after 16 hrs by microbroth dilution method; format: functional
Pseudomonas aeruginosa [28] = test: Antibacterial activity against multidrug-resistant Pseudomonas aeruginosa PS301 after 16 hrs by microbroth dilution method; format: functional; conditions: PS301, 16 h
[29] = target: T2, Outer membrane protein TolC (Escherichia coli (strain K12)); test: Inhibition of IPTG-stimulated Escherichia coli K-12 tolC at 8 fold MIC by microarray analysis
Pseudomonas aeruginosa [30] = test: Antibacterial activity against Pseudomonas aeruginosa PAO1 after 16 hrs by microbroth dilution method; format: functional; conditions: PAO1, 16 h
Pseudomonas aeruginosa [31] = test: Antibacterial activity against multidrug-resistant Pseudomonas aeruginosa PAE349 after 16 hrs by microbroth dilution method; format: functional; conditions: PAE349, 16 h
Escherichia coli [32] = test: Antibacterial activity against Escherichia coli K-12 MG1655 after 16 hrs by microbroth dilution method; format: functional; conditions: K-12 MG1655, 16 h

Sequence of Multidrug efflux pump subunit AcrB (Escherichia coli (strain K12)) (P31224 whole entry): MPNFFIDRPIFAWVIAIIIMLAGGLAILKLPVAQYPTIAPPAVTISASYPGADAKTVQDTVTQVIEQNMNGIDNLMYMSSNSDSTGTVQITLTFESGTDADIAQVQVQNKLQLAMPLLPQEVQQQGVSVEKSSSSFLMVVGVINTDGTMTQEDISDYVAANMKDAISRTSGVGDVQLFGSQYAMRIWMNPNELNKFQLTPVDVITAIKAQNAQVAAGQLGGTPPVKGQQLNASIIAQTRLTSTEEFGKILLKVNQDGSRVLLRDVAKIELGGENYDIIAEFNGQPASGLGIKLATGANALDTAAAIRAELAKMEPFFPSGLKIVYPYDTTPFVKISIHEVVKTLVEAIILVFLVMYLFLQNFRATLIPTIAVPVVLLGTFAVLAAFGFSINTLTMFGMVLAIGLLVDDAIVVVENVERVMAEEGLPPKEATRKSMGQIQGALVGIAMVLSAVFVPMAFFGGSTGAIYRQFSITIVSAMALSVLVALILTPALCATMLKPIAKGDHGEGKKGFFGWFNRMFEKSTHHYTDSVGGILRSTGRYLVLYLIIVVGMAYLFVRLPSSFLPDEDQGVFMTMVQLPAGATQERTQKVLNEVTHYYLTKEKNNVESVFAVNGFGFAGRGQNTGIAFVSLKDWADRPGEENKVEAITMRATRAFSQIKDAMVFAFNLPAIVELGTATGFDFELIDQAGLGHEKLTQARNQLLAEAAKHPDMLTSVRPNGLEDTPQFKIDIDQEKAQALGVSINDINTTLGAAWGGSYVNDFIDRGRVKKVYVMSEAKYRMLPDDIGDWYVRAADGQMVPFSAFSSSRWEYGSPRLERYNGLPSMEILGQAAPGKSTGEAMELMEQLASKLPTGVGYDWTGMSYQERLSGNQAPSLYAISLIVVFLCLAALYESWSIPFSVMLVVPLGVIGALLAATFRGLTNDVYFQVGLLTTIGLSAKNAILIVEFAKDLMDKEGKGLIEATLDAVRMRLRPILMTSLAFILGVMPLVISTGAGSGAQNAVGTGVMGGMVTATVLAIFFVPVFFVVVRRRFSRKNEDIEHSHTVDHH

COc1ccc(CCN2CN=C(SCc3ccc(Cl)cc3)NC2)cc1OC
Activity (HeLa): > 256 µg/mL | MIC (Pseudomonas aeruginosa [1]): 4 µg/mL (≈ 9.85 µM) | MIC (Pseudomonas aeruginosa [2]): 4 µg/mL (≈ 9.85 µM) | MIC (Pseudomonas aeruginosa [3]): 16 µg/mL (≈ 39.4 µM) | Kd [4]: 7.5 µM | Activity (Escherichia coli [5]): Active | MIC (Pseudomonas aeruginosa [6]): 4 µg/mL (≈ 9.85 µM) | inhibition [7]: inactive | MIC (Pseudomonas aeruginosa [8]): 128 µg/mL (≈ 315 µM) | inhibition [9]: Active | MIC (Pseudomonas aeruginosa [10]): 2 µg/mL (≈ 4.93 µM) | MIC (Pseudomonas aeruginosa [11]): 128 µg/mL (≈ 315 µM) | MIC (Pseudomonas aeruginosa [12]): 4 µg/mL (≈ 9.85 µM) | MIC (Candida albicans): > 256 µg/mL | Activity [13]: Active | MIC (Escherichia coli [14]): 16 µg/mL (≈ 39.4 µM) | MIC (Pseudomonas aeruginosa [15]): 2 µg/mL (≈ 4.93 µM) | MIC (Pseudomonas aeruginosa [16]): 128 µg/mL (≈ 315 µM) | MIC (Bacillus subtilis): > 256 µg/mL | inhibition [17]: Active | MIC (Pseudomonas aeruginosa [18]): 16 µg/mL (≈ 39.4 µM) | inhibition [19]: Active | MIC (Burkholderia cepacia): 128 µg/mL (≈ 315 µM) | inhibition [20]: Active | inhibition [21]: Active | MIC (Escherichia coli [22]): 8 µg/mL (≈ 19.7 µM) | MIC (Micrococcus luteus): > 256 µg/mL | Activity (Escherichia coli [23]): Active | MIC (Pseudomonas aeruginosa [24]): 4 µg/mL (≈ 9.85 µM) | MIC (Pseudomonas aeruginosa [25]): 16 µg/mL (≈ 39.4 µM) | MIC (Pseudomonas aeruginosa [26]): 1 µg/mL (≈ 2.46 µM) | MIC [27]: 8 µg/mL (≈ 19.7 µM) | MIC (Staphylococcus aureus): > 256 µg/mL | MIC (Pseudomonas aeruginosa [28]): 256 µg/mL (≈ 631 µM) | inhibition [29]: Active | MIC (Pseudomonas aeruginosa [30]): 4 µg/mL (≈ 9.85 µM) | MIC (Pseudomonas aeruginosa [31]): 4 µg/mL (≈ 9.85 µM) | MIC (Escherichia coli [32]): 16 µg/mL (≈ 39.4 µM)
